EC50 and IC50 data for 15 compounds are collected here from patent US20250320213A1, “Nitrogen-Containing Heterocyclic Compounds” (Pfizer Inc., priority 2024, published 2025).

Each structure is given as a SMILES string. pEC50, pIC50: −log10 of the molar value.

One assay addresses T1, STAT6 (Homo sapiens, UniProt P42226).
T1 construct: stably transfected HaCaT keratinocyte cell line, which expresses NanoLuc luciferase reporter gene under the transcriptional control of the STAT6 responsive promoter; endogenous in cells; host or cells: HaCaT keratinocyte reporter cell line (stably transfected with a NanoLuc reporter)
T1 sequence (P42226 1-847): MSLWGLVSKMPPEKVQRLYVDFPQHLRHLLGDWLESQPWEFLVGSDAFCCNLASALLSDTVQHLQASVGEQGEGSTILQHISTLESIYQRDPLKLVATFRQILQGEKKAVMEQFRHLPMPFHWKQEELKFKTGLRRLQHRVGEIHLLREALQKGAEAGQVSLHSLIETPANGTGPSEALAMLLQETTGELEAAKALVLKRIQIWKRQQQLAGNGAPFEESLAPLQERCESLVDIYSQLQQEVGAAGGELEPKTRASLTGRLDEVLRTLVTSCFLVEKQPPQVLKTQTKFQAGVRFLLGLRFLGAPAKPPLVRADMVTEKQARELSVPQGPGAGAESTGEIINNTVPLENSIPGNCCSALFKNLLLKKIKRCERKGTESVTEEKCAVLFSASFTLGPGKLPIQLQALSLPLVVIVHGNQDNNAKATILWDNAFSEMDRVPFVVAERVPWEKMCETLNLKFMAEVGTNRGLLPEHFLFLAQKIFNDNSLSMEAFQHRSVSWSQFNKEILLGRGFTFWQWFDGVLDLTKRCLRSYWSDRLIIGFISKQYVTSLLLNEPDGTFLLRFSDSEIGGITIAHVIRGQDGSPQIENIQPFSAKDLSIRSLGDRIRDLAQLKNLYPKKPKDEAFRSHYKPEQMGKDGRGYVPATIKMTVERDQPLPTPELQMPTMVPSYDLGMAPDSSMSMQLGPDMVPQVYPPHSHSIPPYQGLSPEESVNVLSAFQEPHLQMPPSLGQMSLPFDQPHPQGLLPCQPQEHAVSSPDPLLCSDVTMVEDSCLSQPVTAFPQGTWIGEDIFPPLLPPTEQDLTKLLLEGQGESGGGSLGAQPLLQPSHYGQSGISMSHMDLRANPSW
Description: STAT6 Reporter Luciferase Assay (IL-13 stimulated HaCaT keratinocyte NanoLuc reporter cells). It is filed as cell-based. The note with it: STAT6 NanoLuc luciferase reporter, IL-13 stimulated HaCaT keratinocyte cells; read-out: Reporter EC50. The method in brief: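 Stably transfected HaCaT cells carrying NanoLuc under the STAT6-responsive IL-13Ra2 promoter were pre-treated with compound (11-point, 4-fold series, duplicate) for 2 h at 37 °C, then stimulated with 0.12 nM IL-13 for 4 h. Nano-Glo luminescence was read after 15 min.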
Background: Reporter assays use an easily measured gene product as a stand-in for the process of interest.

For assay [1], the system named is CCL17 secretion in peripheral human whole blood. Description: Human Whole Blood (HWB) CCL17 TR-FRET Assay (IL-13 stimulated CCL17 secretion). It is filed as cell-based. The note with it: inhibition of CCL17 secretion in human whole blood, 10 ng/mL IL13, 48 hours. The protocol: The IC50 (half-maximal concentration required for inhibition) of compounds for the inhibition of CCL17 secretion in peripheral human whole blood, stimulated through the IL-13-IL-13 receptor/IL-4 receptor pathway was evaluated with a TR-FRET sandwich ELISA CCL17 (TARC) Assay Kit (Bioauxilium).
Test compounds (solubilized and serially diluted in DMSO, in an 11 point, 3-fold dilution series in duplicate) were spotted, 80 nL per well, into a 384 well v-bottom polypropylene plate. Human whole blood was collected from a peripheral vein, 714 units of sodium heparin was added for every 50 mL of blood collected. Sixty μL per well of blood was added to the compound plate. The blood plate was incubated for two hours at 37° C. After two hours, CCL17 production was stimulated with the addition of 20 μL per well of IL13 (R&D Systems) in HBSS with calcium and magnesium, with a final concentration of 10 ng/mL IL13. The plate containing blood, compound, and IL-13 was incubated at 37° C. for 48 hours, to allow for CCL17 production. After 48 hours, the plate was centrifuged at 1,500 revolutions per minute (RPM) for 7 minutes, with no braking. The CCL17 TR-FRET Assay Kit detection reagent was prepared according to kit instructions and 4 μL per well of the antibody cocktail was added to a 384-well white low volume non-binding coated plate (Corning). Sixteen μL of serum from the centrifuged blood plate was transferred to the detection plate containing the TR-FRET antibody cocktail. The plate was centrifuged briefly, then covered and incubated 16 hours at room temperature. The plate was then read on an EnVision 2105 multilabel reader (PerkinElmer) with settings for TR-FRET Ratio=10,000×(fluorescence intensity 665 nm/fluorescence intensity 615 nm).
Background: In TR-FRET formats the signal depends on donor and acceptor labels being close together.

By pEC50 is commonly meant −log10 of the EC50, conventionally taken in molar units. As usually defined, the pIC50 is the IC50 on a negative log10 scale, so that one unit is a factor of ten. High values mean a low IC50, low ones a high IC50. Take `CC1CN(c2ccc(-c3nccn3C)cn2)Cc2c(C(=O)NCc3ccc(NC(=O)N(C)C)cc3)nn(C)c21` (racemic) [Example 59, rac-(R)-N-(4-(3,3-dimethylureido)benzyl)-1,7-dimethyl-5-(5-(1-methyl-1H-imidazol-2-yl)pyridin-2-yl)-4,5,6,7-tetrahydro-1H-pyrazolo[4,3-c]pyridine-3-carboxamide]: the pEC50 on STAT6 is 8.52. In addition, in assay [1] (Homo sapiens, 48 h), the pIC50 was 7.57.

Regarding `CC(C1CC1)n1nc(C(=O)NCc2ccc(NC(=O)N(C)C)cc2)c2c1CCN(c1ccc(C(=O)N(C)C)cn1)C2` (racemic) [Example 62, rac-(R)-1-(1-cyclopropylethyl)-5-(5-(dimethylcarbamoyl)pyridin-2-yl)-N-(4-(3,3-dimethylureido)benzyl)-4,5,6,7-tetrahydro-1H-pyrazolo[4,3-c]pyridine-3-carboxamide], the pEC50 on STAT6 is 8.05. In assay [1] (Homo sapiens, 48 h), this compound gave a pIC50 of 7.18.

For `CN(C)C(=O)Nc1ccc(CNC(=O)c2nn(C)c3c2[C@H]2CCC[C@@H](C3)N2c2ccc(C(=O)N(C)C)cn2)cc1` (racemic) [Example 68, rac-(4R,8S)-10-(5-(dimethylcarbamoyl)pyridin-2-yl)-N-(4-(3,3-dimethylureido)benzyl)-1-methyl-4,5,6,7,8,9-hexahydro-1H-4,8-epiminocycloocta[c]pyrazole-3-carboxamide], on STAT6, the pEC50 is 8.05. This compound had a pIC50 in assay [1] of 7.37.

`CCn1nc(C(=O)NCc2ccc(NC(=O)N(C)C)cc2)c2c1C(C)CN(c1ccc(C(=O)N(C)C)cn1)C2` (racemic) [Example 71, rac-(R)-5-(5-(dimethylcarbamoyl)pyridin-2-yl)-N-(4-(3,3-dimethylureido)benzyl)-1-ethyl-7-methyl-4,5,6,7-tetrahydro-1H-pyrazolo[4,3-c]pyridine-3-carboxamide]: on STAT6, the pEC50 was 8.70. This compound also had a pIC50 in assay [1] (Homo sapiens, 48 h) of 7.85.

Take `CN(C)C(=O)Nc1ccc(CNC(=O)c2nn(C)c3c2[C@@H]2COC[C@H](C3)N2c2ccc(C(=O)N(C)C)cn2)cc1` (racemic) [Example 72, rac-(4R,8S)-10-(5-(dimethylcarbamoyl)pyridin-2-yl)-N-(4-(3,3-dimethylureido)benzyl)-1-methyl-1,4,5,7,8,9-hexahydro-4,8-epiminooxocino[5,4-c]pyrazole-3-carboxamide]: the negative logarithm of the EC50 (pEC50) at STAT6 was 6.51. Further, the pIC50 in assay [1] (Homo sapiens, 48 h) is 5.96.

In the case of `CCC1CN(c2ccc(C(=O)N(C)C)cn2)Cc2c(C(=O)NCc3ccc(NC(=O)N(C)C)cc3)nn(C)c21` (racemic) [Example 77, rac-(R)-5-(5-(Dimethylcarbamoyl)pyridin-2-yl)-N-(4-(3,3-dimethylureido)benzyl)-7-ethyl-1-methyl-4,5,6,7-tetrahydro-1H-pyrazolo[4,3-c]pyridine-3-carboxamide], the pEC50 at STAT6 is 8.40. This compound gave a pIC50 in assay [1] (Homo sapiens, 48 h) of 7.35.

On to `CC(C)n1nc(C(=O)NCc2ccc(NC(=O)N(C)C)cc2)c2c1CCN(c1ccc(N3CC(CO)OC3=O)cn1)C2` (racemic) [Example 80, rac-(R)-N-(4-(3,3-dimethylureido)benzyl)-5-(5-(5-(hydroxymethyl)-2-oxooxazolidin-3-yl)pyridin-2-yl)-1-isopropyl-4,5,6,7-tetrahydro-1H-pyrazolo[4,3-c]pyridine-3-carboxamide], for which, at STAT6, the pEC50 is < 5.00. Also, the pIC50 in assay [1] (Homo sapiens, 48 h) is < 4.52.

With `CC(NC(=O)c1nn(C(C)C)c2c1CN(c1ccc(C(=O)N(C)C)cn1)CC2)c1ccc(NC(=O)N(C)C)cc1` (racemic) [Example 81, rac-(R)-5-(5-(dimethylcarbamoyl)pyridin-2-yl)-N-(1-(4-(3,3-dimethylureido)phenyl)ethyl)-1-isopropyl-4,5,6,7-tetrahydro-1H-pyrazolo[4,3-c]pyridine-3-carboxamide], on STAT6, the pEC50 was 7.47. This compound gave a pIC50 in assay [1] (Homo sapiens, 48 h) of 6.94.

Regarding `CCC(C)n1nc(C(=O)NCc2ccc(NC(=O)N(C)C)cc2)c2c1CCN(c1ccc(C(=O)N(C)C)cn1)C2` (racemic) [Example 85, rac-(R)-1-(sec-butyl)-5-(5-(dimethylcarbamoyl)pyridin-2-yl)-N-(4-(3,3-dimethylureido)benzyl)-4,5,6,7-tetrahydro-1H-pyrazolo[4,3-c]pyridine-3-carboxamide], the pEC50 on STAT6 is 8.22. For the same compound, the pIC50 in assay [1] (Homo sapiens, 48 h) was 7.05.

As to `CN(C)C(=O)Nc1ccc(CNC(=O)c2nn(C)c3c2[C@H]2CC[C@@H](C3)N2c2ccc(C(=O)N(C)C)cn2)cc1` (racemic) [Example 86, rac-(4R,7S)-9-(5-(dimethylcarbamoyl)pyridin-2-yl)-N-(4-(3,3-dimethylureido)benzyl)-1-methyl-1,4,5,6,7,8-hexahydro-4,7-epiminocyclohepta[c]pyrazole-3-carboxamide], the pEC50 on STAT6 is < 5.00. Besides, in assay [1] (Homo sapiens, 48 h), the pIC50 is < 4.52.

As for `CN(C)C(=O)Nc1ccc(CNC(=O)c2nn(C3CCOC3)c3c2CN(c2ccc(C(=O)N(C)C)cn2)CC3)cc1` (racemic) [Example 90, rac-(R)-5-(5-(dimethylcarbamoyl)pyridin-2-yl)-N-(4-(3,3-dimethylureido)benzyl)-1-(tetrahydrofuran-3-yl)-4,5,6,7-tetrahydro-1H-pyrazolo[4,3-c]pyridine-3-carboxamide], the pEC50 on STAT6 was 7.60. Moreover, in assay [1] (Homo sapiens, 48 h), the pIC50 is 7.17.

For the compound `COCC(C)n1nc(C(=O)NCc2ccc(NC(=O)N(C)C)cc2)c2c1CCN(c1ccc(C(=O)N(C)C)cn1)C2` (racemic) [Example 92, rac-(R)-5-(5-(dimethylcarbamoyl)pyridin-2-yl)-N-(4-(3,3-dimethylureido)benzyl)-1-(1-methoxypropan-2-yl)-4,5,6,7-tetrahydro-1H-pyrazolo[4,3-c]pyridine-3-carboxamide], the pEC50 on STAT6 was 7.70. The same compound showed a negative-log IC50 (pIC50) in assay [1] (Homo sapiens, 48 h) of 7.21.

In the case of `CC(C)n1nc(C(=O)NCc2ccc(NC(=O)N(C)C)cc2)c2c1CCN(c1ccc(N3CC(O)CC3=O)cn1)C2` (racemic) [Example 93, rac-(R)-N-(4-(3,3-dimethylureido)benzyl)-5-(5-(4-hydroxy-2-oxopyrrolidin-1-yl)pyridin-2-yl)-1-isopropyl-4,5,6,7-tetrahydro-1H-pyrazolo[4,3-c]pyridine-3-carboxamide], the pEC50 at STAT6 was 6.28. In assay [1] (Homo sapiens, 48 h), this compound had a pIC50 of 5.64.

For the compound `CC1CN(c2ccc(C(=O)N(C)C)cn2)Cc2c(C(=O)NCc3ccc(NC(=O)N(C)C)cc3)nn(C(C)C)c21` (racemic) [Example 95, rac-(R)-5-(5-(dimethylcarbamoyl)pyridin-2-yl)-N-(4-(3,3-dimethylureido)benzyl)-1-isopropyl-7-methyl-4,5,6,7-tetrahydro-1H-pyrazolo[4,3-c]pyridine-3-carboxamide], on STAT6, the pEC50 was 9.00. In addition, the pIC50 in assay [1] (Homo sapiens, 48 h) is 8.22.

For `CC(n1nc(C(=O)NCc2ccc(NC(=O)N(C)C)cc2)c2c1CCN(c1ccc(C(=O)N(C)C)cn1)C2)C(F)(F)F` (racemic) [Example 101, rac-(R)-5-(5-(dimethylcarbamoyl)pyridin-2-yl)-N-(4-(3,3-dimethylureido)benzyl)-1-(1,1,1-trifluoropropan-2-yl)-4,5,6,7-tetrahydro-1H-pyrazolo[4,3-c]pyridine-3-carboxamide], the pEC50 at STAT6 was 8.30. In assay [1] (Homo sapiens, 48 h), this compound gave a pIC50 of 7.28.
